For data set [1], the system named is human embryonic lung fibroblast (HELF) cell cultures. Briefly: Anti-cellular (toxic and cytostatic) effect on HELF cells in the same screening test. Format: cell-based. To be noted: 6 days at 37° C. The procedure: (§1) The anti-HCMV effect was determined in a screening test system in 96-well microtitre plates with the aid of human embryonic lung fibroblast (HELF) cell cultures. The influence of the substances on the spread of the cytopathogenic effect was compared with that of the reference substance ganciclovir ([…]® sodium), a clinically approved anti-HCMV chemotherapeutic agent. The substances, dissolved (50 mM) in DMSO (dimethyl sulphoxide), are investigated on microtitre plates (96-well) at final concentrations of 1000-0.00048 μM (micromolar) in double determinations (4 substances/plate). In this test, both the toxic and cytostatic effects of the substances are recorded. […] After staining with neutral red and fixing with formalin/methanol, the plates are evaluated using a projection microscope (plaque viewer).

Another data set deals with HCMV (Davis). Description: Anti-HCMV (Davis) activity: inhibition of the cytopathogenic effect in HELF cell cultures, 96-well screening test. Format: cell-based, human cytomegalovirus. As for the experimental part:
as §1
On the technique in general: Cytopathic effects are the visible damage that an infection or toxin causes in cultured cells.

The structures appear in SMILES notation.

Regarding `Nc1nc(O)c2ncn(COC(CO)CO)c2n1` [Cymevene^R Na, ganciclovir], the “CIC50 (μM) (HELF) = highest concentration at which no obvious anticellular effect is evident” value in data set [1] turned out to be 125 µM. Moreover, in the data set with HCMV (Davis) (HELF versus HCMV, definition given only as a drawing), the “SI (selectivity index)” value is listed as 32-64. Besides, in the data set with HCMV (Davis) (Human betaherpesvirus 5, 144 h, read-out: IC50 (μM) (HCMV) = concentration which elicits 50% inhibition of the CPE, HCMV (Davis)-infected HELF cells, 6 days, neutral red staining), the IC50 fell in the range of 2 to 4 µM.
